According to patent US7842808B2, “Anti-migraine spirocycles” (Bristol-Myers Squibb Company, priority 2002, dated 2010):
Read-outs that look alike come from different tables or passages of the source.

Columns and labels:
[1] = target: T1, human CGRP receptor (SK-N-MC cells) (Homo sapiens, UniProt O60894+Q16602); assay: Cyclic AMP Assay, functional antagonism of CGRP-induced cyclic AMP formation; assay type: cell-based
T1 construct: SK-N-MC cells that endogenously express the human CGRP receptor; endogenous in cells; host or cells: SK-N-MC cells
T1 sequence (Q16602 23-461): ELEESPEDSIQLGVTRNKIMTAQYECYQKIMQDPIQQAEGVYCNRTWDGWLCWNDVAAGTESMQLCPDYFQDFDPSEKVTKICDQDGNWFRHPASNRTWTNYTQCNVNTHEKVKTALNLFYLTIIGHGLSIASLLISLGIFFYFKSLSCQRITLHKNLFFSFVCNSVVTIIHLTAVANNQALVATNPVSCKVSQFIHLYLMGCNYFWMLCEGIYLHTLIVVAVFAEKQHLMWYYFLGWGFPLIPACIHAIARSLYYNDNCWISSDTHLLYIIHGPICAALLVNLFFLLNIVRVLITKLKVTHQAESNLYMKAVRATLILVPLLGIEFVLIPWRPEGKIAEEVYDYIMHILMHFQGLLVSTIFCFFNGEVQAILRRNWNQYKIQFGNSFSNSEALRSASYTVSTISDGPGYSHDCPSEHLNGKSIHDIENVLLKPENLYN
T1 sequence (O60894 27-148): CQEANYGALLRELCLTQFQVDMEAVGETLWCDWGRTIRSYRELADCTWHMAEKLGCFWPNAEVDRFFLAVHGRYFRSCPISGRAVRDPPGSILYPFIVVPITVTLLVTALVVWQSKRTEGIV
Protocol: Functional Antagonism. Antagonism of the compounds of invention was determined by measuring the formation of cyclic AMP (adenosine 3′5′-cyclic monophosphate) in SK-N-MC cells that endogenously express the human CGRP receptor. […] For cyclic AMP measurements SK-N-MC cells were incubated with 0.3 nM CGRP alone or in the presence of various concentrations of the compounds of invention for 30 min at room temperature. […] Cyclic AMP was extracted using the lysis reagent and its concentration was determined by radioimmunoassay using RPA559 cAMP SPA Direct Screening Assay Kit (Amersham Pharmacia Biotech). IC50 values were calculated using Excel fit.

[2] = target: T2, CGRP receptor (SK-N-MC cell membranes) (Homo sapiens, UniProt O60894+Q16602); assay: CGRP Binding Assay ([125I]-CGRP radioligand binding, SK-N-MC homogenate); settings: displacement of [125I]-CGRP, SK-N-MC homogenate; read-out: CGRP binding IC50
T2 construct: endogenous in cells; host or cells: SK-N-MC cells (membrane homogenate)
T2 sequence (Q16602 23-461): as the sequence (Q16602 23-461) above
T2 sequence (O60894 27-148): as the sequence (O60894 27-148) above

[3] = SK-N-MC cells, 0.3 nM CGRP, read-out: cAMP Function IC50

Structure (SMILES): O=C(CC(Cc1ccc2[nH]ncc2c1)C(=O)N1CCC2(CC1)OCCO2)N1CCC(N2Cc3ccccc3NC2=O)CC1 (racemic) [Example 81, (±)-1-(1,4-Dioxa-8-aza-spiro[4.5]dec-8-yl)-2-(1H-indazol-5-ylmethyl)-4-[4-(2-oxo-1,4-dihydro-2H-quinazolin-3-yl)-piperidin-1-yl]-butane-1,4-dione]
- IC50 [1]: 100 to 1000 nM
- IC50 [2]: 10 to 100 nM

Structure (SMILES): CN(C)C(=O)C(CC(=O)N1CCC(N2Cc3ccccc3NC2=O)CC1)Cc1ccc2[nH]ncc2c1 (racemic) [Example 82, (±)-2-(1H-Indazol-5-ylmethyl)-N,N-dimethyl-4-oxo-4-[4-(2-oxo-1,4-dihydro-2H-quinazolin-3-yl)-piperidin-1-yl]-butyramide]
- IC50 [1, 3]: 100 to 1000 nM
- IC50 [2]: 10 to 100 nM

Structure (SMILES): CC(C)(C)OC(=O)n1ncc2cc(CC(CC(=O)N3CCC(N4Cc5ccccc5NC4=O)CC3)C(=O)N3CCC(N4CCCCC4)CC3)ccc21 (racemic) [Example 83, (±)-5-{2-([1,4′]Bipiperidinyl-1′-carbonyl)-4-oxo-4-[4-(2-oxo-1,4-dihydro-2H-quinazolin-3-yl)-piperidin-1-yl]-butyl}-indazole-1-carboxylic acid tert-butyl ester]
- IC50 [1, 3]: 100 to 1000 nM
- IC50 [2]: 10 to 100 nM

Structure (SMILES): C#CCNC(=O)C(CC(=O)N1CCC(N2Cc3ccccc3NC2=O)CC1)Cc1cc(C)c2[nH]ncc2c1 (racemic) [Example 84, (±)-2-(7-Methyl-1H-indazol-5-ylmethyl)-4-oxo-4-[4-(2-oxo-1,4-dihydro-2H-quinazolin-3-yl)-piperidin-1-yl]-N-prop-2-ynyl-butyramide]
- IC50 [1, 3]: 10 to 100 nM
- IC50 [2]: 10 to 100 nM

Structure (SMILES): O=C(NC(Cc1ccc2[nH]ncc2c1)C(=O)N1CCC(N2Cc3ccccc3NC2=O)CC1)N1CCC(N2Cc3ccccc3NC2=O)CC1 (stereo not drawn) [Example 37, 4-(2-Oxo-1,4-dihydro-2H-quinazolin-3-yl)-piperidine-1-carboxylic acid{1-(1H-indazol-5-ylmethyl)-2-oxo-2-[4-(2-oxo-1,4-dihydro-2H-quinazolin-3-yl)-piperidin-1-yl]-ethyl}-amide]
- IC50 [1, 3]: 10 to 100 nM
- IC50 [2]: < 10 nM

Structure (SMILES): O=C(NC(Cc1ccc2[nH]ncc2c1)C(=O)N1CCN(C(=O)OCc2ccccc2)CC1)N1CCC(N2Cc3ccccc3NC2=O)CC1 (stereo not drawn) [Example 38, 4-(3-(1H-Indazol-5-yl)-2-{[4-(2-oxo-1,4-dihydro-2H-quinazolin-3-yl)-piperidine-1-carbonyl]-amino}-propionyl)-piperazine-1-carboxylic acid benzyl ester]
- IC50 [1, 3]: 10 to 100 nM
- IC50 [2]: 10 to 100 nM

Structure (SMILES): O=C(NC(Cc1ccc2[nH]ncc2c1)C(=O)N1CCNCC1)N1CCC(N2Cc3ccccc3NC2=O)CC1 (stereo not drawn) [Example 39, 4-(2-Oxo-1,4-dihydro-2H-quinazolin-3-yl)-piperidine-1-carboxylic acid[1-(1H-indazol-5-ylmethyl)-2-oxo-2-piperazin-1-yl-ethyl]-amide]
- IC50 [1, 3]: 100 to 1000 nM
- IC50 [2]: 100 to 1000 nM

Structure (SMILES): CCC(C)CN1CCN(C(=O)C(Cc2ccc3[nH]ncc3c2)NC(=O)N2CCC(N3Cc4ccccc4NC3=O)CC2)CC1 (stereo not drawn) [Example 40a, 4-(2-Oxo-1,4-dihydro-2H-quinazolin-3-yl)-piperidine-1-carboxylic acid{1-(1H-indazol-5-ylmethyl)-2-[4-(2-methyl-butyl)-piperazin-1-yl]-2-oxo-ethyl}-amide]
- IC50 [1, 3]: < 10 nM
- IC50 [2]: < 10 nM

Structure (SMILES): Cc1nc2cc(C[C@@H](NC(=O)N3CCC(N4Cc5ccccc5NC4=O)CC3)C(=O)N3CCC(N4CCCCC4)CC3)ccc2[nH]1 [Example 46, (R)-4-(2-Oxo-1,4-dihydro-2H-quinazolin-3-yl)-piperidine-1-carboxylic acid[2-[1,4′]bipiperidinyl-1′-yl-1-(2-methyl-1H-benzoimidazol-5-ylmethyl)-2-oxo-ethyl]-amide]
- IC50 [1, 3]: 10 to 100 nM
- IC50 [2]: 10 to 100 nM

Structure (SMILES): O=C(N[C@H](Cc1csc2ccccc12)C(=O)N1CCC(N2CCCCC2)CC1)N1CCC2(CC1)Cc1ccccc1NC2=O [Example 61, (R)-1-Oxo-3,4-benzo-2,9-diaza-spiro[5.5]undec-3-ene-9-carboxylic acid (1-benzo[b]thiophen-3-ylmethyl-2-[1,4′]bipiperidinyl-1′-yl-2-oxo-ethyl)-amide]
- IC50 [1, 3]: 100 to 1000 nM
- IC50 [2]: 100 to 1000 nM

Structure (SMILES): O=C1CC2(CCN(C(=O)N[C@H](Cc3csc4ccccc34)C(=O)N3CCC(N4CCCCC4)CC3)CC2)c2ccccc2N1 [Example 62, N-[(1R)-1-(Benzo[b]thien-3-ylmethyl)-2-[1,4-bipiperidin]-1-yl-2-oxoethyl]-3′,4′-dihydro-2-oxospiro-[piperidine-4,4′(1H)-quinoline]-1-carboxamide]
- IC50 [1, 3]: 10 to 100 nM
- IC50 [2]: 10 to 100 nM

Structure (SMILES): O=C1NCC2(CCN(C(=O)N[C@H](Cc3csc4ccccc34)C(=O)N3CCC(N4CCCCC4)CC3)CC2)c2ccccc21 [Example 63, N-[(1R)-1-(Benzo[b]thien-3-ylmethyl)-2-[1,4-bipiperidin]-1-yl-2-oxoethyl]-2′,3′-dihydro-1-oxospiro-[piperidine-4,4′(1H)-isoquinoline]-1-carboxamide]
- IC50 [1, 3]: 100 to 1000 nM
- IC50 [2]: 100 to 1000 nM

Structure (SMILES): O=C(C[C@H](Nc1cc(Cl)ccc1[N+](=O)[O-])C(=O)N1CCC(N2CCCCC2)CC1)N1CCC(N2Cc3ccccc3NC2=O)CC1 [Example 87, (L)-1-[1,4′]Bipiperidinyl-1′-yl-2-(5-chloro-2-nitro-phenylamino)-4-[4-(2-oxo-1,4-dihydro-2H-quinazolin-3-yl)-piperidin-1-yl]-butane-1,4-dione]
- IC50 [1, 3]: 10 to 100 nM
- IC50 [2]: 10 to 100 nM

Structure (SMILES): O=C(C[C@H](Nc1cc(Cl)ncn1)C(=O)N1CCC(N2CCCCC2)CC1)N1CCC(N2Cc3ccccc3NC2=O)CC1 [Example 88, (L)-1-[1,4′]Bipiperidinyl-1′-yl-2-(6-chloro-pyrimidin-4-ylamino)-4-[4-(2-oxo-1,4-dihydro-2H-quinazolin-3-yl)-piperidin-1-yl]-butane-1,4-dione]
- IC50 [1, 3]: 10 to 100 nM
- IC50 [2]: 100 to 1000 nM

Structure (SMILES): O=C(C[C@H](Nc1nc(Cl)nc2[nH]cnc12)C(=O)N1CCC(N2CCCCC2)CC1)N1CCC(N2Cc3ccccc3NC2=O)CC1 [Example 89, (L)-1-[1,4′]Bipiperidinyl-1′-yl-2-(2-chloro-9H-purin-6-ylamino)-4-[4-(2-oxo-1,4-dihydro-2H-quinazolin-3-yl)-piperidin-1-yl]-butane-1,4-dione]
- IC50 [1, 3]: 10 to 100 nM
- IC50 [2]: 100 to 1000 nM

Structure (SMILES): Cc1nc(N[C@@H](CC(=O)N2CCC(N3Cc4ccccc4NC3=O)CC2)C(=O)N2CCC(N3CCCCC3)CC2)nc2nn[nH]c12 [Example 92, (L)-1-[1,4′]Bipiperidinyl-1′-yl-2-(7-methyl-1H-[1,2,3]triazolo[4,5-d]pyrimidin-5-ylamino)-4-[4-(2-oxo-1,4-dihydro-2H-quinazolin-3-yl)-piperidin-1-yl]-butane-1,4-dione]
- IC50 [1, 3]: 100 to 1000 nM
- IC50 [2]: 10 to 100 nM

Structure (SMILES): O=C(C[C@H](NCc1ccc2[nH]ncc2c1)C(=O)N1CCC(N2CCCCC2)CC1)N1CCC(N2Cc3ccccc3NC2=O)CC1 [Example 94, (L)-1-[1,4′]Bipiperidinyl-1′-yl-2-((5′-indazolyl)-methyl-amino)-4-[4-(2-oxo-1,4-dihydro-2H-quinazolin-3-yl)-piperidin-1-yl]-butane-1,4-dione]
- IC50 [1, 3]: 100 to 1000 nM
- IC50 [2]: 100 to 1000 nM

Structure (SMILES): COc1ccc(C(=O)N[C@@H](CC(=O)N2CCC(N3Cc4ccccc4NC3=O)CC2)C(=O)N2CCC(N3CCCCC3)CC2)cc1 [Example 99, (L)-N-{1-([1,4′]Bipiperidinyl-1′-carbonyl)-3-oxo-3-[4-(2-oxo-1,4-dihydro-2H-quinazolin-3-yl)-piperidin-1-yl]-propyl}-4-methoxy-benzamide]
- IC50 [1, 3]: > 1000 nM
- IC50 [2]: > 1000 nM
